Results published in patent publication US20120245137A1 (Zalicus Pharmaceuticals Ltd., priority 2009, published 2012).
Read-outs that look alike come from different tables or passages of the source.

Tests used:
Type in all cases: cell-based
CAv1.2 = CAv1.2 (Homo sapiens, UniProt Q13936); assay: FLIPR data, CAv1.2 channel blocking (Table 6); settings: for CAv1.2 IC50 Ratio closed/inact.: ratio closed/inactivated IC50
T-type calcium channel [1] = biological target: T-type calcium channel (Homo sapiens, UniProt O43497); assay: T-type channel blocking, FLIPR data (Table 6); settings: CAv3.1
Excerpt: (§1) Another method, high-throughput spectrophotometric assay, utilizes loading of the cell lines with a fluorescent dye sensitive to intracellular calcium concentration and subsequent examination of the effects of compounds on the ability of depolarization by potassium chloride or other means to alter intracellular calcium levels.

T-type calcium channel [2] = biological target: T-type calcium channel (Homo sapiens, UniProt O95180); assay: T-type channel blocking, FLIPR data (Table 6); settings: for CAv3.2 IC50 Ratio closed/inact.: CAv3.2, ratio closed/inactivated IC50
Excerpt: as §1

Human Cav 2.2 channels = Human Cav 2.2 channels (Homo sapiens, UniProt Q00975); assay: Fluorescent assay for CaV2.2 channels using potassium depolarization (VIPR/FLIPR); settings: FLIPR data; for CAv2.2 IC50 Ratio closed/inact.: ratio closed/inactivated IC50
Outline: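 HEK293 cells stably expressing human Cav2.2 with α2δ and β subunits plus Kir2.3 were loaded with fluo-4 and incubated 30 min at 25 °C with compound in 4, 12, 25 or 30 mM potassium buffer. Channels were opened with 70 mM potassium (final) and calcium influx was read by fluorescence (Ex 480/Em 535 nm).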

[3] = closed state, read-out: CAv1.2 IC50 Closed
[4] = inactivated state, read-out: CAv1.2 IC50 Inact.
[5] = CAv3.2, closed state, read-out: CAv3.2 IC50 Closed
[6] = CAv3.2, inactivated state, read-out: CAv3.2 IC50 Inact.
[7] = closed state, read-out: CAv2.2 IC50 Closed
[8] = inactivated state, read-out: CAv2.2 IC50 Inact.

Sequence of T-type calcium channel (Homo sapiens, UniProt O95180) (O95180 whole entry): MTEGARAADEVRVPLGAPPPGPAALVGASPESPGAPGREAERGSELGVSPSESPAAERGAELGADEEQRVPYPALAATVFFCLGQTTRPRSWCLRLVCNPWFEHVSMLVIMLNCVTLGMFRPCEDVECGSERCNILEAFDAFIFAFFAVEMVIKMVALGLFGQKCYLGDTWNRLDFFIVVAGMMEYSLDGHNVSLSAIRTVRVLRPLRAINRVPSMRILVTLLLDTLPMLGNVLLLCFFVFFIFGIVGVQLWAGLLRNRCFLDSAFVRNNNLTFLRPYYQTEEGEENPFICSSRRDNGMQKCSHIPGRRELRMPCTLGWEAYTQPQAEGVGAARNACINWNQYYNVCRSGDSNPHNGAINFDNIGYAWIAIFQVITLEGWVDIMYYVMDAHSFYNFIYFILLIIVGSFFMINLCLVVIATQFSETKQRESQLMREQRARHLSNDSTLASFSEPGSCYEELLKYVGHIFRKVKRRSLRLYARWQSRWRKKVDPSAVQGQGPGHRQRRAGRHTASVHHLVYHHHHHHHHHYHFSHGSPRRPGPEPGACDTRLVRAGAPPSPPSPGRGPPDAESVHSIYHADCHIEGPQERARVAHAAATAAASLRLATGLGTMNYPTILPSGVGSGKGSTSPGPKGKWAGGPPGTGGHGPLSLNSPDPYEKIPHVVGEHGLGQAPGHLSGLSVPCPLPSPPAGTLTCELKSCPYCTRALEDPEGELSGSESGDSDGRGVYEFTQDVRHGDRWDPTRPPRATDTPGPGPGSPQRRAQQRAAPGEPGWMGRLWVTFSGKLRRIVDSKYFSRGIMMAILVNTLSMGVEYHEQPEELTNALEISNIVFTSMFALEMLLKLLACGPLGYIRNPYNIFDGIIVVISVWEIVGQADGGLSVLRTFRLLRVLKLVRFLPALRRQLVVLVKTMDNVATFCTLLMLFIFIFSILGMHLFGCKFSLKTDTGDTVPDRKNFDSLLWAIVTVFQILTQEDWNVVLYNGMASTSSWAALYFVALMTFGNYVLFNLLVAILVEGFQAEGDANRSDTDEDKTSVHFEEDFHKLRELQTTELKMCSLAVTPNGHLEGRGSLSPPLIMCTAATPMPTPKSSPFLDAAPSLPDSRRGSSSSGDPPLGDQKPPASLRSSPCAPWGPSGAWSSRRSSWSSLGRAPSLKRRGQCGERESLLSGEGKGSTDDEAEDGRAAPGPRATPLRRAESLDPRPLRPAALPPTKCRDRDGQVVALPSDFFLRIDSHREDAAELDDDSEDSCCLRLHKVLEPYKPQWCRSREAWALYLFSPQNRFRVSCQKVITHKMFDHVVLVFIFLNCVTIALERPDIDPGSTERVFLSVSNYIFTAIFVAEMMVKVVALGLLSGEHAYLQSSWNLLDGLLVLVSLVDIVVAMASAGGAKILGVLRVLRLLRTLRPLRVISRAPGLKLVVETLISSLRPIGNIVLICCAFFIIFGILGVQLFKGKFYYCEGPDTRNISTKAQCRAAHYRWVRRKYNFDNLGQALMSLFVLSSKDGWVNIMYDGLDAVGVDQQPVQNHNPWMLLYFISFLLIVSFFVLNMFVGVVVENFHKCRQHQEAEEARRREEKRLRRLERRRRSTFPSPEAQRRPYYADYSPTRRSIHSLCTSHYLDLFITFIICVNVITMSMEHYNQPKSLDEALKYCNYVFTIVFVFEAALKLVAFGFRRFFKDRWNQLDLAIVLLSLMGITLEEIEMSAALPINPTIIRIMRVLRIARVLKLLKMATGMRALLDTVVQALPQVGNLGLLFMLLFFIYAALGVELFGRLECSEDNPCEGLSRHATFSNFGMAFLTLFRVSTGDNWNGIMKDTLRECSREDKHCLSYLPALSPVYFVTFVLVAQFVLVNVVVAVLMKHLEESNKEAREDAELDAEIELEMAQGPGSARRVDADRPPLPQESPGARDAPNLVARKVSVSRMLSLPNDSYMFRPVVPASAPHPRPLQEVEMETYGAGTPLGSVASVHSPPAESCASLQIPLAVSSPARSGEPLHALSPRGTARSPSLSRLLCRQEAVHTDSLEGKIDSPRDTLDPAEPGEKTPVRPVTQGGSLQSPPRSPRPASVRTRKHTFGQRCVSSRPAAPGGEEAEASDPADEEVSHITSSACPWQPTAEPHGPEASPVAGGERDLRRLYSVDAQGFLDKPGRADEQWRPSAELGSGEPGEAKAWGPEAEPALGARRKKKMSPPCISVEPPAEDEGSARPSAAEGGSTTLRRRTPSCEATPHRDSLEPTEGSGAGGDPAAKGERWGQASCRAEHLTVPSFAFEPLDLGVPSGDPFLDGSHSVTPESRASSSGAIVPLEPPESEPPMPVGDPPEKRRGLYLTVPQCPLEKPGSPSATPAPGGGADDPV
Sequence of T-type calcium channel (Homo sapiens, UniProt O43497) (O43497 whole entry): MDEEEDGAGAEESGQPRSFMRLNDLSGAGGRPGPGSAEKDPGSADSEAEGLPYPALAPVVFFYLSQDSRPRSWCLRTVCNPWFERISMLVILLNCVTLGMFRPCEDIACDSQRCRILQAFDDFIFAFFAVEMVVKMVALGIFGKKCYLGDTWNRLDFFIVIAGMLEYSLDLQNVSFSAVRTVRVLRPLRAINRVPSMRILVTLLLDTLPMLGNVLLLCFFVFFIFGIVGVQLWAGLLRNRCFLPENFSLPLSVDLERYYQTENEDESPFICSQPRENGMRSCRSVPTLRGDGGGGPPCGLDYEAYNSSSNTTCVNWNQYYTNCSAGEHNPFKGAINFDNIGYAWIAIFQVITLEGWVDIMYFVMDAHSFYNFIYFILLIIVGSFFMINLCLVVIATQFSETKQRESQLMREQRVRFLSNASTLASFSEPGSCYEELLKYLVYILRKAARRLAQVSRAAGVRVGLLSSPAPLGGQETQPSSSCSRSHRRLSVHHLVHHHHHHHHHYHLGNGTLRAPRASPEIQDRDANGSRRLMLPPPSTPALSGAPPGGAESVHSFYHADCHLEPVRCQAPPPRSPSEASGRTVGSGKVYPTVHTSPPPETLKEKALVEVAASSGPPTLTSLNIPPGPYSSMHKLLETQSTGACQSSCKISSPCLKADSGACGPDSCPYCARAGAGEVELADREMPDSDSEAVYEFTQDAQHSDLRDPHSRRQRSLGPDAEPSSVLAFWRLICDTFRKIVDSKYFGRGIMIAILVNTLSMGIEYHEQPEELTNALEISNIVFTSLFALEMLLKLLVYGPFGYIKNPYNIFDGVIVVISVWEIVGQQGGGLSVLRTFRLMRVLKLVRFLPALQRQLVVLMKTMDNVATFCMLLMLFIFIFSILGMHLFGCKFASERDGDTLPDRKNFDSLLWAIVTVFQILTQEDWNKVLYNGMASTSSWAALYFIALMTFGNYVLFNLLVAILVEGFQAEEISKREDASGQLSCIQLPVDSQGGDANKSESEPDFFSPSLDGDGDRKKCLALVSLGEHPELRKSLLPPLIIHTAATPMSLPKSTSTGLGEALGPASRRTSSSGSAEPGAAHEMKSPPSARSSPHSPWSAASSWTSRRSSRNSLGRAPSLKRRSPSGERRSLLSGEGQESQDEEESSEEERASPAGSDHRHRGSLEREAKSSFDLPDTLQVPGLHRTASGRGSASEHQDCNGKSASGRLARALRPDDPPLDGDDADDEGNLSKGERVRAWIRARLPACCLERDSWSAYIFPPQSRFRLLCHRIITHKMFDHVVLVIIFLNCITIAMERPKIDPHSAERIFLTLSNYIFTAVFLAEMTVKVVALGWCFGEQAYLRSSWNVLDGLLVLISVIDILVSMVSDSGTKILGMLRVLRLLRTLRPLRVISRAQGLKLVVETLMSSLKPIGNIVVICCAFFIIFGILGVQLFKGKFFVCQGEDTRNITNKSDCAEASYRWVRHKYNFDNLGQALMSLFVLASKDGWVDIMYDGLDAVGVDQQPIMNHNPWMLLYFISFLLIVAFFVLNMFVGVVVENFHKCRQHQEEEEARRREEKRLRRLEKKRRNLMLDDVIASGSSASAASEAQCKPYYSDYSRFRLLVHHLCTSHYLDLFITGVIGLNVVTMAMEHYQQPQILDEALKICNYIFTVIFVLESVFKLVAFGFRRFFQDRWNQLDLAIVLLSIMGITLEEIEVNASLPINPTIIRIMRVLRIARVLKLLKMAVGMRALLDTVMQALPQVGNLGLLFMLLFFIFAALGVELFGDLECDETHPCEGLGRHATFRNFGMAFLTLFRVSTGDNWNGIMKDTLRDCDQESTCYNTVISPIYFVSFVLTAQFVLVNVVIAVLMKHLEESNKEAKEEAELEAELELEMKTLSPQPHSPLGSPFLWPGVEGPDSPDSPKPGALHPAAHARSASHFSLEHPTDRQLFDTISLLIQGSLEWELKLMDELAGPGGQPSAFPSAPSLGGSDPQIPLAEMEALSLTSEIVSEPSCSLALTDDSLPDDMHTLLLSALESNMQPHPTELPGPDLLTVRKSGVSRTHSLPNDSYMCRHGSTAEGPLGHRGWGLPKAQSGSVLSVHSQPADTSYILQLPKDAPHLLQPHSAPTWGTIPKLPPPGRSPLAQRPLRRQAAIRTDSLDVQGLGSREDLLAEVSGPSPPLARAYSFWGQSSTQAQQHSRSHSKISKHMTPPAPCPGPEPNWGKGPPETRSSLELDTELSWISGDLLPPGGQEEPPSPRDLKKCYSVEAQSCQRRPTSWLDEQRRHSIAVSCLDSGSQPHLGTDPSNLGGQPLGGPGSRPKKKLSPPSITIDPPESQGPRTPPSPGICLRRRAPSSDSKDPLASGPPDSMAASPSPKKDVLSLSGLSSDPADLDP

Compound | IC50 (CAv1.2; [3]) [nM] | IC50 (CAv1.2; [4]) [nM] | CAv1.2 IC50 Ratio closed/inact. (CAv1.2) | IC50 (T-type calcium channel [1]) [nM] | IC50 (T-type calcium channel [2]; [5]) [nM] | IC50 (T-type calcium channel [2]; [6]) [nM] | CAv3.2 IC50 Ratio closed/inact. (T-type calcium channel [2]) | IC50 (Human Cav 2.2 channels; [7]) [nM] | IC50 (Human Cav 2.2 channels; [8]) [nM] | CAv2.2 IC50 Ratio closed/inact. (Human Cav 2.2 channels)
CC(C)(C1CC(CNC(=O)c2cnc(C(F)(F)F)nc2)C1)S(=O)(=O)c1cccc(C(F)(F)F)c1 (stereo not shown) [Compound 616] | ≥ 10000 | 2810 | 3.6 | ≥ 10000 | ≥ 10000 | 6400 | 1.6 | 4810 | 610 | 7.9
CC(C)(C1CC(CNC(=O)c2ccc(Cl)c(F)c2)C1)S(=O)(=O)c1cccc(C(F)(F)F)c1 (stereo not shown) [Compound 617] | 4050 | 380 | 10.7 | 8030 | 2690 | 810 | 3.3 | 1340 | 150 | 8.9
CC(C)(C1CC(CNC(=O)c2ccc(F)c(Cl)c2)C1)S(=O)(=O)c1cccc(C(F)(F)F)c1 (stereo not shown) [Compound 618] | 4080 | 300 | 13.6 | 2470 | 1990 | 350 | 5.7 | 1300 | 120 | 10.8
CC(C)(C1CC(CNC(=O)c2ccc(OCC(F)(F)F)nc2)C1)S(=O)(=O)c1cccc(C(F)(F)F)c1 (stereo not shown) [Compound 619] | 4420 | 1360 | 3.3 | 5120 | 3290 | 1270 | 2.6 | 1660 | 260 | 6.4
CC(C)(C1CC(CNC(=O)c2ccnc(C(F)(F)F)c2)C1)S(=O)(=O)c1cccc(C(F)(F)F)c1 (stereo not shown) [Compound 620] | 9990 | 670 | 14.9 | 8710 | 5520 | 1390 | 4 | 2870 | 390 | 7.4
CC(C)(C1CC(CNC(=O)c2ccc(Cl)c(OC(F)(F)F)c2)C1)S(=O)(=O)c1cccc(C(F)(F)F)c1 (stereo not shown) [Compound 621] | 3390 | 240 | 14.1 | 1470 | 1530 | 200 | 7.7 | 1830 | 150 | 12.2
CC(C)([C@H]1C[C@@H](NS(=O)(=O)c2ccc(C(F)(F)F)cc2Cl)C1)S(=O)(=O)c1cc(F)cc(C(F)(F)F)c1 [Compound 622] | 9010 | 1940 | 4.6 | 4860 | ≥ 10000 | 4480 | 2.2 | 4790 | 680 | 7
CC(C)([C@H]1C[C@H](NS(=O)(=O)c2ccc(C(F)(F)F)cc2Cl)C1)S(=O)(=O)c1cc(F)cc(C(F)(F)F)c1 [Compound 623] | 8070 | 1540 | 5.2 | 5300 | ≥ 10000 | 1540 | 6.5 | 3370 | 740 | 4.6
CC(C)([C@H]1C[C@@H](NS(=O)(=O)c2ccc(C(F)(F)F)cc2)C1)S(=O)(=O)c1cccc(C(F)(F)F)c1 [Compound 624] | ≥ 10000 | 5540 | 1.8 | 2960 | 2960 | 2260 | 1.3 | 10000 | 800 | 12.5
CC(C)([C@H]1C[C@@H](NS(=O)(=O)c2ccc(F)c(Cl)c2)C1)S(=O)(=O)c1cccc(C(F)(F)F)c1 [Compound 625] | ≥ 10000 | 6390 | 1.6 | 3740 | 3710 | 3100 | 1.2 | 10000 | 1090 | 9.2
CC(C)([C@H]1C[C@@H](NS(=O)(=O)c2ccc(Cl)c(F)c2)C1)S(=O)(=O)c1cccc(C(F)(F)F)c1 [Compound 626] | 9150 | 5400 | 1.7 | 3770 | 3850 | 2580 | 1.5 | 8450 | 1100 | 7.7
CC(C)([C@H]1C[C@@H](NS(=O)(=O)c2ccc(C(F)(F)F)cc2Cl)C1)S(=O)(=O)c1cccc(C(F)(F)F)c1 [Compound 627] | ≥ 10000 | 5860 | 1.7 | 2380 | 2200 | 1330 | 1.7 | 10000 | 880 | 11.4
CC(C)([C@H]1C[C@@H](NS(=O)(=O)c2ccc(F)c(C(F)(F)F)c2)C1)S(=O)(=O)c1cccc(C(F)(F)F)c1 [Compound 628] | ≥ 10000 | 5320 | 1.9 | 2180 | 3220 | 3260 | 1 | 10000 | 1220 | 8.2
CC(C)([C@H]1C[C@@H](NS(=O)(=O)c2ccc(C(F)(F)F)nc2)C1)S(=O)(=O)c1cccc(C(F)(F)F)c1 [Compound 629] | ≥ 10000 | 4660 | 2.1 | 2970 | 3410 | 3380 | 1 | 7450 | 430 | 17.3
CC(C)([C@H]1C[C@@H](NS(=O)(=O)c2ccc(OC(F)(F)F)cc2)C1)S(=O)(=O)c1cccc(C(F)(F)F)c1 [Compound 630] | ≥ 10000 | 3110 | 3.2 | 2330 | 3730 | 2160 | 1.7 | 10000 | 680 | 14.7
CC(C)([C@H]1C[C@H](NC(=O)c2cc(C(F)(F)F)n[nH]2)C1)S(=O)(=O)c1cccc(OC(F)(F)F)c1 [Compound 632] | ≥ 10000 | 3300 | 3 | 9410 | 570 | 1520 | 0.4 | 5690 | 460 | 12.4
CC(C)([C@H]1C[C@H](NC(=O)c2ccc(Cl)c(F)c2)C1)S(=O)(=O)c1cccc(OC(F)(F)F)c1 [Compound 633] | 5740 | 1180 | 4.9 | 2300 | 630 | 570 | 1.1 | 2060 | 190 | 10.8
CC(C)([C@H]1C[C@H](NC(=O)c2ccc(F)c(Cl)c2)C1)S(=O)(=O)c1cccc(OC(F)(F)F)c1 [Compound 634] | 5920 | 600 | 9.9 | 1550 | 700 | 810 | 0.9 | 2210 | 220 | 10
CC(C)([C@H]1C[C@H](NC(=O)c2ccnc(C(F)(F)F)n2)C1)S(=O)(=O)c1cccc(OC(F)(F)F)c1 [Compound 635] | ≥ 10000 | 7630 | 1.3 | 6960 | 7630 | 7840 | 1 | 2000 | 270 | 7.4
CC(C)([C@H]1C[C@H](NC(=O)c2ccc(C(F)(F)F)cc2S(C)(=O)=O)C1)S(=O)(=O)c1cccc(OC(F)(F)F)c1 [Compound 636] | ≥ 10000 | 5240 | 1.9 | 9970 | 4220 | 5440 | 0.8 | 10000 | 380 | 26.3
CC(C)([C@H]1C[C@H](NC(=O)c2ncc(C(F)(F)F)cc2S(C)(=O)=O)C1)S(=O)(=O)c1cccc(OC(F)(F)F)c1 [Compound 637] |  | ≥ 10000 |  | ≥ 10000 | ≥ 10000 | 10000 | 1 | 10000 | 580 | 17.2
